Reference: paper PMC5731860, “Novel allylated monocarbonyl analogs of curcumin induce mitotic arrest and apoptosis by reactive oxygen species-mediated endoplasmic reticulum stress and inhibition of STAT3” (Oncotarget, 2017)

Columns and labels:
[1] = system: BGC-823; test: MTT assay, growth inhibition / cell viability; assay type: cell-based; details: Homo sapiens; for inhibition at 20 µM: BGC-823, 20 μM, 24 h
Procedure: (§1) First, we investigated whether allylated MAC alter the viability or have cytotoxic effects on cells in culture. We have performed MTT tetrazolium reduction assay following exposure of cancer cells (gastric cancer, BGC823 and SGC-7901; colon cancer, HT-29, HCT-116 and SW-480) and normal gastric epithelial cells (GES-1) to all 20 allylated MAC at a concentration of 20 μM for 24 h. […] In addition, we also found notable solubility and stability profile of these compounds (Supplementary Figure 1).
(§2) Cells were plated at a density of 8 × 10^3 cells/well in 96-well plates and allowed to attach overnight. Stock solutions of allylated MAC and curcumin were prepared in DMSO and diluted in culture media to obtain appropriate concentration. Cells were treated for 24 h and 48 h, following which, 20 μL of 5 mg/ml MTT reagent was added. Purple formazan product was dissolved by the addition of 100 μL DMSO to each well. Absorbance was then monitored at 490 nm using a plate reader (Molecular Device Spectra MAX190, USA). Percentage of cytotoxicity was determined using the following formula: Growth inhibition (%) = (OD of control−OD of test/OD of control×100%).

[2] = system: SGC-7901; test: MTT assay, growth inhibition / cell viability; assay type: cell-based; details: Homo sapiens; for inhibition at 20 µM: 24 h
Procedure: as §1, §2

[3] = system: HT-29; test: MTT assay, growth inhibition; assay type: cell-based; details: Homo sapiens, HT-29, 24 h
Procedure: as §1, §2

[4] = system: HCT-116; test: MTT assay, growth inhibition; assay type: cell-based, human; details: for % Of growth inhibition HCT-116: 20 μM, 24 h; for inhibition at 20 µM: Homo sapiens, HCT-116, 24 h
Procedure: as §1, §2

[5] = system: SW-480; test: MTT assay, growth inhibition; assay type: cell-based, human; details: for inhibition at 20 µM: Homo sapiens, SW480, 24 h; for % Of growth inhibition SW-480: 20 μM, 24 h
Procedure: as §1, §2

[6] = system: GES-1; test: MTT assay, growth inhibition in normal gastric epithelial cells; assay type: cell-based, human; details: for inhibition of the normal epithelial cells (selective cytotoxicity in cancer cell lines), in words: 20 μM, 24 h; for inhibition at 20 µM: Homo sapiens, GES1, 24 h, normal gastric epithelial cells
Procedure: as §1, §2

[7] = system: SGC-7901 xenograft tumors; test: In vivo mouse xenograft model, tumor growth; design: species or system mice; details: ip once a day for 12 days, CA10 10 and 20 mg/kg, curcumin 50 mg/kg
Description: (§3) All animal experiments complied with the Wenzhou Medical University's Policy on the Care and Use of Laboratory Animals. Protocols for animal studies were approved by the Wenzhou Medical University Animal Policy and Welfare Committee (Approved documents: 2016/201). Athymic BALB/c nu/nu female mice weighing 20–22 g (6 weeks old) were purchased from Vital River Laboratories (Beijing, China). Animals were housed (6 animals/gage) at a constant room temperature with a 12/12-hr light/dark cycle and fed a standard rodent diet and water ad libitum. SGC-7901 cells were injected subcutaneously into the right flank of each mice at 1 × 10^6 cells in 0.1 mL PBS. Once tumors reached a volume of 100–200 mm^3, mice were randomly divided into 4 groups. These groups included mice treated with 10 mg/kg CA10, mice treated with 20 mg/kg CA10, mice treated 50 mg/kg curcumin, and control mice receiving vehicle alone. All treatments were carried out with intraperitoneal injections. The body weight and tumor volumes were monitored and determined by measuring length (l) and width (w) and calculated as tumor volume (V = 0.5 × l × w2) at the indicated time points. At the end of treatment period, mice were sacrificed and the tumors were removed and weighed for histological analyses and proteins measurement studies.

[8] = Body weight of xenograft mice; assay type: in vivo; details: 0–12 days, ip once a day; CA10 10 and 20 mg/kg, curcumin 50 mg/kg
Description: as §3

Row | Structure (SMILES) | inhibition at 20 µM [1] | inhibition at 20 µM ([2]; SGC-7901, 24 h) | inhibition at 20 µM [3] | % Of growth inhibition HCT-116 [4] | inhibition at 20 µM [4] | inhibition at 20 µM [5] | inhibition of the normal epithelial cells (selective cytotoxicity in cancer cell lines), in words [6] | inhibition at 20 µM [6] | % Of growth inhibition SW-480 [5] | IC50 ([1]; BGC-823, 24 h) | IC50 ([1]; BGC-823, 48 h) | IC50 ([2]; SGC-7901, 24 h) | IC50 ([2]; SGC-7901, 48 h) | tumor weight and volume [7] | body weight of mice [8]
1 | C=CCc1cc(/C=C2\CN(CC)C/C(=C\c3ccc(O)c(CC=C)c3)C2=O)ccc1O [CA1] | 60.4 ± 0.62% | 66.1 ± 8.88% | < 60% | 50.22 ± 7.62% | 55% | 71.3 ± 3.35% | minimal inhibition | 22.8 ± 3.04% | – | – | – | – | – | – | –
2 | C=CCc1cc(/C=C2\CN(CCC)C/C(=C\c3ccc(O)c(CC=C)c3)C2=O)ccc1O [CA2] | 63 ± 8.7% | 79.8 ± 0.9% | 67 ± 6.79% | – | 60.6 ± 0.98% | 76 ± 6.31% | – | 60.88 ± 0.41% | – | – | – | – | – | – | –
3 | C=CCc1cc(/C=C2\CN(C3CC3)C/C(=C\c3ccc(O)c(CC=C)c3)C2=O)ccc1O [CA4] | 67.06 ± 0.4% | 77.8 ± 1.98% | 74.3 ± 0.79% | 44.18 ± 6.18% | 55% | 81 ± 5.36% | – | 63.4 ± 2.67% | – | – | – | – | – | – | –
4 | C=CCc1cc(/C=C2\CN(S(=O)(=O)c3ccccc3)C/C(=C\c3ccc(O)c(CC=C)c3)C2=O)ccc1O [CA5] | 63.3 ± 5.52% | > 80% | 71.2 ± 1.99% | 43.04 ± 4.24% | 55% | 77.1 ± 3.79% | – | 63.8 ± 2.33% | – | – | – | – | – | – | –
5 | C=CCc1cc(/C=C2\CN(Cc3ccccc3)C/C(=C\c3ccc(O)c(CC=C)c3)C2=O)ccc1O [CA6] | 65.83 ± 0.52% | > 80% | 79.7 ± 3.11% | 72.58 ± 2.72% | 70% | 79.1 ± 4.2% | minimal inhibition | 22.6 ± 6.08% | – | – | – | – | – | – | –
6 | C=CCc1cc(/C=C2\CCC/C(=C\c3ccc(O)c(CC=C)c3)C2=O)ccc1O [CA7] | 71.2 ± 3.07% | > 80% | 79.5 ± 4.1% | – | 67 ± 4.92% | 71.7 ± 1.15% | – | > 60% | – | – | – | – | – | – | –
7 | C=CCc1cc(/C=C2\COC/C(=C\c3ccc(O)c(CC=C)c3)C2=O)ccc1O [CA8] | 71.2 ± 1.07% | > 80% | 71.1 ± 2.6% | 38.83 ± 4.23% | 55% | 79.3 ± 4.37% | – | 27 ± 3.4% | – | – | – | – | – | – | –
8 | C=CCc1cc(/C=C2\CSC/C(=C\c3ccc(O)c(CC=C)c3)C2=O)ccc1O [CA9] | 69.3 ± 3.13% | > 80% | 75.7 ± 2.18% | – | 67.3 ± 5.03% | 78 ± 5.69% | – | > 60% | – | – | – | – | – | – | –
9 | C=CCc1cc(/C=C2\CN(C3CC3)C/C(=C\c3ccc(N4CCN(C)CC4)cc3)C2=O)ccc1O [CA11] | 61.33 ± 0.48% | 61 ± 4.97% | 63.3 ± 1.31% | 52.05 ± 1.91% | 55% | 49.5 ± 6.47% | – | 45.56 ± 0.39% | – | – | – | – | – | – | –
10 | C=CCc1cc(/C=C2\CN(C3CC3)C/C(=C\c3ccc(N4CCOCC4)cc3)C2=O)ccc1O [CA12] | 40.1 ± 4.65% | 52.5 ± 5.54% | < 60% | 70.99 ± 3.12% | 70% | 33.8 ± 1.98% | – | 40 ± 3.29% | – | – | – | – | – | – | –
11 | C=CCc1cc(/C=C2\CN(C3CC3)C/C(=C\c3ccc(N(CC)CC)cc3)C2=O)ccc1O [CA14] | 40.4 ± 5.7% | > 80% | < 60% | 52.10 ± 9.05% | 55% | 57 ± 3.57% | – | 47.9 ± 8.09% | – | – | – | – | – | – | –
12 | C=CCc1cc(/C=C2\CN(C3CC3)C/C(=C\c3ccc(N(C)C)cc3)C2=O)ccc1O [CA15] | 50.6 ± 2.49% | 50.5 ± 4.3% | < 60% | 43.17 ± 8.26% | 55% | 36.3 ± 1.7% | minimal inhibition | 23.8 ± 4.79% | – | – | – | – | – | – | –
13 | C=CCc1cc(/C=C2\CN(C3CC3)C/C(=C\c3cc(OC)c(OC)cc3OC)C2=O)ccc1O [CA16] | 60.7 ± 5.64% | 60 ± 7.35% | 68 ± 1.39% | – | 60.1 ± 2.02% | 33.8 to 57% | – | 41.3 ± 5.22% | 35.69 ± 5.91% | – | – | – | – | – | –
14 | C=CCc1cc(/C=C2\CN(C3CC3)C/C(=C\c3ccc(OC)c(OC)c3)C2=O)ccc1O [CA17] | 37 ± 4.35% | 73.7 ± 1.26% | < 60% | – | 78.1 ± 64% | 64.7 ± 4.65% | – | 61.9 ± 1.41% | – | – | – | – | – | – | –
15 | C=CCc1cc(/C=C2\CN(C3CC3)C/C(=C\c3c(OC)cc(OC)cc3OC)C2=O)ccc1O [CA18] | 57.96 ± 0.01% | 61.3 ± 4.02% | 63 ± 4.2% | – | 74.8 ± 1.25% | – | – | 57.8 ± 3.58% | 56.88 ± 3.82% | – | – | – | – | – | –
16 | C=CCc1cc(/C=C2\CN(C3CC3)C/C(=C\c3ccc(OC)cc3OC)C2=O)ccc1O [CA19] | 59.2 ± 3.67% | 76.6 ± 5.18% | 62.6 ± 7.39% | – | 78.1 ± 4.72% | 60.4 ± 3.1% | – | 62 ± 4.58% | – | – | – | – | – | – | –
17 | C=CCc1cc(/C=C2\CN(C3CC3)C/C(=C\c3ccc(OC(C)(C)C)cc3)C2=O)ccc1O [CA20] | 56.8 ± 0.81% | > 80% | 71.16 ± 0.6% | 73.62 ± 4.23% | 70% | 61.5 ± 6.1% | minimal inhibition | 25.8 ± 1.86% | – | – | – | – | – | – | –
18 | COc1cc(/C=C/C(=O)CC(=O)/C=C/c2ccc(O)c(OC)c2)ccc1O [curcumin] | – | – | – | – | – | – | – | – | – | 54.4 ± 3.92 µM | 38.2 ± 1.02 µM | 62.2 ± 2.08 µM | 36.9 ± 3.17 µM | significant reduction | no change
